# Experimental data reported in patent US11230555B2, “Bicyclic RORγ modulators” (Escalier Biosciences B.V., priority 2018, dated 2022).
# Target: T1, RORγt (Homo sapiens, UniProt P51449)
# T1 construct: purchased reporter-cell kit
# T1 sequence (P51449 269-508 limits assumed): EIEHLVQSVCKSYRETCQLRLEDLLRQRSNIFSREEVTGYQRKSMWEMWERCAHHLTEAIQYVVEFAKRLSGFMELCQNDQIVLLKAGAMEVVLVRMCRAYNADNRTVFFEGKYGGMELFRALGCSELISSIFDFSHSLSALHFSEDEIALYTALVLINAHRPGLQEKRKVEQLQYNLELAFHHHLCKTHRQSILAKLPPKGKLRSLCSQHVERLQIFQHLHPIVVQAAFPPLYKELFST
# Experiment: Gal4 ligand binding assay (RORγt Gal fusion reporter assay)
# Assay type: cell-based
# Conditions: inverse agonists, luciferase reporter, 24h
# Description: Compounds of the present invention were tested in a human RORγ ligand binding assay using a commercially available cell based ligand binding reporter assay in 96-well format (Cat #IB04001, INDIGO Biosciences, State College, Pa.). The N-terminal DNA binding domains (DBD) of the native RORγ and RORγt receptors have been substituted with that of the yeast GAL4-DBD and stably transfected in […] cells that also stably express luciferase under the regulation by upstream activation sequence of yeast Gal4. These cells constitutively express high level RORγ activity due to binding of endogenous co-factors. Both agonist and inverse agonist activity can be detected. The assay was performed according to kit manufacturer's instructions as follows. 10 mM compound stocks were diluted serially 1:3 with DMSO and further diluted with provided media to generate 10 titration points from 60 μM to 3 nM. These treatment conditions were added to the plates as 2× media in 100 μL volume. Each plate includes a positive control with 10 titration points as well as 6negative control wells with vehicle only, with final DMSO concentration of 0.2%. RORγ reporter cells were rapidly thawed and added to the plates in 100 μL volume. The plates were incubated for 24h in a 37° C. humidified 5% CO2incubator. Media was removed before the addition of room temperature luciferous detection substrate. After 5 minute incubation, relative light units (RLUs) were quantified using a plate reading luminometer. Data was normalized to positive control wells with only […]. Before establishing internal controls, ursolic acid was used as control.
row,Structure (SMILES),IC50
1,"Cc1cc(CN2CC3CCC(C2)N3S(=O)(=O)Cc2ccccc2)ccc1-c1ccc(C(O)(C(F)(F)F)C(F)(F)F)cc1 [Example 65, 2-(4′-((8-(benzylsulfonyl)-3,8-diazabicyclo[3.2.1]octan-3-yl)methyl)-2′-methyl-[1,1′-biphenyl]-4-yl)-1,1,1,3,3,3-hexafluoropropan-2-ol]",> 250 nM
2,"Cc1cc(CN2CC3CCC(C2)N3S(C)(=O)=O)ccc1-c1ccc(C(O)(C(F)(F)F)C(F)(F)F)cc1 [Example 73, 1,1,1,3,3,3-hexafluoro-2-(2′-methyl-4′-((8-(methylsulfonyl)-3,8-diazabicyclo[3.2.1]octan-3-yl)methyl)-[1,1′-biphenyl]-4-yl)propan-2-ol]",50 to 250 nM
3,"Cc1cc(CN2C3CCC2CN(Cc2ccc(-c4ccc(C(O)(C(F)(F)F)C(F)(F)F)cc4)c(C)c2)C3)ccn1 [Example 66, 1,1,1,3,3,3-hexafluoro-2-(2′-methyl-4′-((8-((2-methylpyridin-4-yl)methyl)-3,8-diazabicyclo[3.2.1]octan-3-yl)methyl)-[1,1′-biphenyl]-4-yl)propan-2-ol]",> 250 nM
4,"Cc1cc(CN2CC3CCC2CN3Cc2ccncc2)ccc1-c1ccc(C(O)(C(F)(F)F)C(F)(F)F)cc1 (stereo not drawn) [Example 76, 1,1,1,3,3,3-hexafluoro-2-(2′-methyl-4′-((5-(pyridin-4-ylmethyl)-2,5-diazabicyclo[2.2.2]octan-2-yl)methyl)-[1,1′-biphenyl]-4-yl)propan-2-ol]",50 to 250 nM
5,"Cc1cc(CN2CC3CCC(C2)N3c2noc(C(C)(C)C)n2)ccc1-c1ccc(C(O)(C(F)(F)F)C(F)(F)F)cc1 [Example 36, 2-(4′-((8-(5-(tert-butyl)-1,2,4-oxadiazol-3-yl)-3,8-diazabicyclo[3.2.1]octan-3-yl)methyl)-2′-methyl-[1,1′-biphenyl]-4-yl)-1,1,1,3,3,3-hexafluoropropan-2-ol]",> 250 nM
6,"Cc1cc(CN2CC3CC2CN3Cc2ccncc2)ccc1-c1ccc(C(O)(C(F)(F)F)C(F)(F)F)cc1 (stereo not drawn) [Example 72, 1,1,1,3,3,3-hexafluoro-2-(2′-methyl-4′-((5-(pyridin-4-ylmethyl)-2,5-diazabicyclo[2.2.1]heptan-2-yl)methyl)-[1,1′-biphenyl]-4-yl)propan-2-ol]",> 250 nM
7,"Cc1cc(CN2CC3CCC(C2)N3Cc2ccncc2)ccc1-c1ccc(C(O)(C(F)(F)F)C(F)(F)F)cc1 [Example 78, 1,1,1,3,3,3-hexafluoro-2-(2′-methyl-4′-((8-(pyridin-4-ylmethyl)-3,8-diazabicyclo[3.2.1]octan-3-yl)methyl)-[1,1′-biphenyl]-4-yl)propan-2-ol]",< 50 nM
8,"Cc1cc(CN2CC3CCC(C2)N3Cc2ccnnc2)ccc1-c1ccc(C(O)(C(F)(F)F)C(F)(F)F)cc1 [Example 51, 1,1,1,3,3,3-hexafluoro-2-(2′-methyl-4′-((8-(pyridazin-4-ylmethyl)-3,8-diazabicyclo[3.2.1]octan-3-yl)methyl)-[1,1′-biphenyl]-4-yl)propan-2-ol]",< 50 nM
9,"Cc1cc(C(O)(C(F)(F)F)C(F)(F)F)ccc1-c1ccc(CN2CC3CCC(C2)N3S(C)(=O)=O)cc1C(C)C [Example 35, 1,1,1,3,3,3-hexafluoro-2-(2′-isopropyl-2-methyl-4′-((8-(methylsulfonyl)-3,8-diazabicyclo[3.2.1]octan-3-yl)methyl)-[1,1′-biphenyl]-4-yl)propan-2-ol]",50 to 250 nM
10,"CS(=O)(=O)N1C2CCC1CN(Cc1ccc(-c3ccc(C(O)(C(F)(F)F)C(F)(F)F)cc3)c(Br)c1)C2 [Example 40, 2-(2′-bromo-4′-((8-(methylsulfonyl)-3,8-diazabicyclo[3.2.1]octan-3-yl)methyl)-[1,1′-biphenyl]-4-yl)-1,1,1,3,3,3-hexafluoropropan-2-ol]",50 to 250 nM
11,"CCc1cc(CN2CC3CCC(C2)N3S(C)(=O)=O)cnc1-c1ccc(C(O)(C(F)(F)F)C(F)(F)F)cc1C [Example 33, 2-(4-(3-ethyl-5-((8-(methylsulfonyl)-3,8-diazabicyclo[3.2.1]octan-3-yl)methyl)pyridin-2-yl)-3-methylphenyl)-1,1,1,3,3,3-hexafluoropropan-2-ol]",> 250 nM
12,"CCc1cc(CN2CC3CCC(C2)N3S(C)(=O)=O)ccc1-c1ccc(C(O)(C(F)(F)F)C(F)(F)F)cc1CC [Example 25, 2-(2,2′-diethyl-4′-((8-(methylsulfonyl)-3,8-diazabicyclo[3.2.1]octan-3-yl)methyl)-[1,1′-biphenyl]-4-yl)-1,1,1,3,3,3-hexafluoropropan-2-ol]",< 50 nM
13,"CS(=O)(=O)N1C2CCC1CN(Cc1ccc(-c3ccc(C(O)(C(F)(F)F)C(F)(F)F)cc3)c(C(F)(F)F)c1)C2 [Example 57, 1,1,1,3,3,3-hexafluoro-2-(4′-((8-(methylsulfonyl)-3,8-diazabicyclo[3.2.1]octan-3-yl)methyl)-2′-(trifluoromethyl)-[1,1′-biphenyl]-4-yl)propan-2-ol]",50 to 250 nM
14,"Cc1cc(CN2C3CCC2CN(Cc2ccc(-c4ccc(C(O)(C(F)(F)F)C(F)(F)F)cc4)c(Cl)c2)C3)ccn1 [Example 48, 2-(2′-chloro-4′-((8-((2-methylpyridin-4-yl)methyl)-3,8-diazabicyclo[3.2.1]octan-3-yl)methyl)-[1,1′-biphenyl]-4-yl)-1,1,1,3,3,3-hexafluoropropan-2-ol]",50 to 250 nM
15,"Cc1cc(CN2CC3CCC(C2)N3Cc2ccnc(O)c2)ccc1-c1ccc(C(O)(C(F)(F)F)C(F)(F)F)cc1 [Example 70, 4-((3-((4′-(1,1,1,3,3,3-hexafluoro-2-hydroxypropan-2-yl)-2-methyl-[1,1′-biphenyl]-4-yl)methyl)-3,8-diazabicyclo[3.2.1]octan-8-yl)methyl)pyridin-2-ol]",> 250 nM
16,"CCc1cc(CN2CC3CCC(C2)N3S(C)(=O)=O)c(F)c(F)c1-c1ccc(C(O)(C(F)(F)F)C(F)(F)F)cc1C [Example 29, 2-(6′-ethyl-2′,3′-difluoro-2-methyl-4′-((8-(methylsulfonyl)-3,8-diazabicyclo[3.2.1]octan-3-yl)methyl)-[1,1′-biphenyl]-4-yl)-1,1,1,3,3,3-hexafluoropropan-2-ol]",< 50 nM
17,"CCc1cc(CN2CC3CCC(C2)N3S(C)(=O)=O)ncc1-c1ccc(C(O)(C(F)(F)F)C(F)(F)F)cc1Cl [Example 4, 2-(3-chloro-4-(4-ethyl-6-((8-(methylsulfonyl)-3,8-diazabicyclo[3.2.1]octan-3-yl)methyl)pyridin-3-yl)phenyl)-1,1,1,3,3,3-hexafluoropropan-2-ol]",50 to 250 nM
18,"CCOC(=O)N1C2CCC1CN(Cc1ccc(-c3ccc(C(O)(C(F)(F)F)C(F)(F)F)cc3)c(C)c1)C2 [Example 44, ethyl 3-((4′-(1,1,1,3,3,3-hexafluoro-2-hydroxypropan-2-yl)-2-methyl-[1,1′-biphenyl]-4-yl)methyl)-3,8-diazabicyclo[3.2.1]octane-8-carboxylate]",> 250 nM
19,"OC(c1ccc(-c2ccc(CN3CC4CCC(C3)N4Cc3ccncc3)cc2C(F)(F)F)cc1)(C(F)(F)F)C(F)(F)F [Example 58, 1,1,1,3,3,3-hexafluoro-2-(4′-((8-(pyridin-4-ylmethyl)-3,8-diazabicyclo[3.2.1]octan-3-yl)methyl)-2′-(trifluoromethyl)-[1,1′-biphenyl]-4-yl)propan-2-ol]",< 50 nM
20,"CCc1cc(CN2CC3CCC(C2)N3S(C)(=O)=O)ccc1-c1ccc(C(O)(C(F)(F)F)C(F)(F)F)cc1C [Example 34, 2-(2′-ethyl-2-methyl-4′-((8-(methylsulfonyl)-3,8-diazabicyclo[3.2.1]octan-3-yl)methyl)-[1,1′-biphenyl]-4-yl)-1,1,1,3,3,3-hexafluoropropan-2-ol]",< 50 nM
21,"OC(c1ccc(-c2ccc(CN3CC4CCC(C3)N4Cc3ccncc3)cc2Cl)cc1)(C(F)(F)F)C(F)(F)F [Example 56, 2-(2′-chloro-4′-((8-(pyridin-4-ylmethyl)-3,8-diazabicyclo[3.2.1]octan-3-yl)methyl)-[1,1′-biphenyl]-4-yl)-1,1,1,3,3,3-hexafluoropropan-2-ol]",< 50 nM
22,"CCc1cc(CN2CC3CCC(C2)N3S(C)(=O)=O)ccc1-c1ccc(C(O)(C(F)(F)F)C(F)(F)F)cn1 [Example 32, 2-(6-(2-ethyl-4-((8-(methylsulfonyl)-3,8-diazabicyclo[3.2.1]octan-3-yl)methyl)phenyl)pyridin-3-yl)-1,1,1,3,3,3-hexafluoropropan-2-ol]",50 to 250 nM
23,"CS(=O)(=O)N1C2CCC1CN(Cc1ccc(-c3ccc(C(O)(C(F)(F)F)C(F)(F)F)cc3)c(Cl)c1)C2 [Example 55, 2-(2′-chloro-4′-((8-(methylsulfonyl)-3,8-diazabicyclo[3.2.1]octan-3-yl)methyl)-[1,1′-biphenyl]-4-yl)-1,1,1,3,3,3-hexafluoropropan-2-ol]",50 to 250 nM
24,"Cc1cc(CN2CC3CCC(C2)N3C(=O)C2CCOCC2)ccc1-c1ccc(C(O)(C(F)(F)F)C(F)(F)F)cc1 [Example 43, (3-((4′-(1,1,1,3,3,3-hexafluoro-2-hydroxypropan-2-yl)-2-methyl-[1,1′-biphenyl]-4-yl)methyl)-3,8-diazabicyclo[3.2.1]octan-8-yl)(tetrahydro-2H-pyran-4-yl)methanone]",50 to 250 nM
